US20260060250A1, “HERBICIDAL PYRIDONE DERIVATIVES” (SYNGENTA CROP PROTECTION AG, priority 2022, published 2026)

Key:
Type in all cases: in vivo
[1] = system: Ipomoea hederacea (IPOHE); assay: Pre-emergence Test (Table B1); set-up: key: 5=81-100%; 4=61-80%; 3=41-60%; 2=21-40%; 1=0-20%; 0=inactive; settings: 1000 g/ha, evaluated after 13 days
[2] = system: Echinochloa crus-galli (ECHCG); assay: Post-emergence Test (Table B2); set-up: key: 5=81-100%; 4=61-80%; 3=41-60%; 2=21-40%; 1=0-20%; 0=inactive; settings: evaluated after 13 days
Experimental: (§1) Seeds of a variety of test species are sown in standard soil in pots (Amaranthus palmeri (AMAPA), Setaria faberi (SETFA), Echinochloa crus-galli (ECHCG), (Amaranthus retroflexus (AMARE), Zea mays (ZEAMX), Ipomoea hederacea (IPOHE)). After 8 days cultivation under controlled conditions in a glasshouse (at 24° C./16° C., day/night; 14 hours light; 65% humidity), the plants are sprayed with an aqueous spray solution derived from the formulation of the technical active ingredient in acetone/water (50:50) solution containing 0.5% Tween 20 (polyoxyethelyene sorbitan monolaurate, CAS RN 9005-64-5). Compounds are applied at 1000 g/ha unless otherwise stated. The test plants are then grown in a glasshouse under controlled conditions in a glasshouse (at 24° C./16° C., day/night; 14 hours light; 65% humidity) and watered twice daily. After 13 days the test is evaluated for the percentage damage caused to the plant.

[3] = system: Ipomoea hederacea (IPOHE); assay: Post-emergence Test (Table B2); set-up: key: 5=81-100%; 4=61-80%; 3=41-60%; 2=21-40%; 1=0-20%; 0=inactive; settings: evaluated after 13 days
Experimental: as §1

Zea mays (ZEAMX) [4] = assay: Post-emergence Test (Table B2); set-up: key: 5=81-100%; 4=61-80%; 3=41-60%; 2=21-40%; 1=0-20%; 0=inactive; settings: evaluated after 13 days
Experimental: as §1

Zea mays (ZEAMX) [5] = assay: Pre-emergence Test (Table B1); set-up: key: 5=81-100%; 4=61-80%; 3=41-60%; 2=21-40%; 1=0-20%; 0=inactive; settings: 1000 g/ha, evaluated after 13 days
[6] = system: Amaranthus retroflexus (AMARE); assay: Post-emergence Test (Table B2); settings: evaluated after 13 days
Experimental: as §1

[7] = system: Amaranthus palmeri (AMAPA); assay: Post-emergence Test (Table B2); settings: evaluated after 13 days
Experimental: as §1

Setaria faberi (SETFA) [8] = assay: Post-emergence Test (Table B2); settings: evaluated after 13 days
Experimental: as §1

Setaria faberi (SETFA) [9] = assay: Pre-emergence Test (Table B1); settings: 1000 g/ha, evaluated after 13 days
[10] = system: Amaranthus palmeri (AMAPA); assay: Pre-emergence Test (Table B1); settings: 1000 g/ha, evaluated after 13 days
[11] = system: Amaranthus retroflexus (AMARE); assay: Pre-emergence Test (Table B1); settings: 1000 g/ha, evaluated after 13 days
[12] = system: Echinochloa crus-galli (ECHCG); assay: Pre-emergence Test (Table B1); set-up: key: 5=81-100%; 4=61-80%; 3=41-60%; 2=21-40%; 1=0-20%; 0=inactive; settings: 1000 g/ha, evaluated after 13 days
[13] = lower rate of 250 g per hectare

In the case of `C=C(C)COC(=O)c1cc(-c2c(C)n(CC)c(-c3ccc(Cl)c(Cl)c3)c(C(=O)O)c2=O)c(F)cc1Cl` [Compound 1, 5-[4-chloro-2-fluoro-5-(2-methylallyloxycarbonyl)phenyl]-2-(3,4-dichlorophenyl)-1-ethyl-6-methyl-4-oxo-pyridine-3-carboxylic acid], the “percentage damage caused to the plant, IPOHE” value [1] is reported as 2 (2=21-40%), the “percentage damage caused to the plant, ECHCG” value ([2]; 1000 g/ha) is reported as 5 (5=81-100%) and the “percentage damage caused to the plant, IPOHE” value ([3]; 1000 g/ha) is reported as 2 (2=21-40%). The “percentage damage caused to the plant, ZEAMX” value (Zea mays (ZEAMX) [4]; 1000 g/ha) was 2 (2=21-40%), the “percentage damage caused to the plant, ZEAMX” value (Zea mays (ZEAMX) [5]) was 0 and the “percentage damage caused to the plant, AMARE” value ([6]; 1000 g/ha) was 5 (5=81-100%). For the same compound, the “percentage damage caused to the plant, AMAPA” value ([7]; 1000 g/ha) was 5 (5=81-100%), the “percentage damage caused to the plant, SETFA” value (Setaria faberi (SETFA) [8]; 1000 g/ha) was 4 (4=61-80%) and the “percentage damage caused to the plant, SETFA” value (Setaria faberi (SETFA) [9]) was 4 (4=61-80%). The “percentage damage caused to the plant, AMAPA” value [10] was 5 (5=81-100%), the “percentage damage caused to the plant, AMARE” value [11] was 5 (5=81-100%) and the “percentage damage caused to the plant, ECHCG” value [12] was 1 (1=0-20%).

For `C#CCOC(=O)c1cc(-c2c(C)n(CC)c(-c3ccc(Cl)c(Cl)c3)c(C(=O)O)c2=O)c(F)cc1Cl` [Compound 2, 5-(4-chloro-2-fluoro-5-prop-2-ynoxycarbonyl-phenyl)-2-(3,4-dichlorophenyl)-1-ethyl-6-methyl-4-oxo-pyridine-3-carboxylic acid], the “percentage damage caused to the plant, IPOHE” value [1] was 0, the “percentage damage caused to the plant, ECHCG” value ([2]; 1000 g/ha) was 4 (4=61-80%) and the “percentage damage caused to the plant, IPOHE” value ([3]; 1000 g/ha) was 4 (4=61-80%). The “percentage damage caused to the plant, ZEAMX” value (Zea mays (ZEAMX) [4]; 1000 g/ha) was 5 (5=81-100%), the “percentage damage caused to the plant, ZEAMX” value (Zea mays (ZEAMX) [5]) was 0 and the “percentage damage caused to the plant, AMARE” value ([6]; 1000 g/ha) was 5 (5=81-100%). The “percentage damage caused to the plant, AMAPA” value ([7]; 1000 g/ha) was 5 (5=81-100%), the “percentage damage caused to the plant, SETFA” value (Setaria faberi (SETFA) [8]; 1000 g/ha) was 5 (5=81-100%) and the “percentage damage caused to the plant, SETFA” value (Setaria faberi (SETFA) [9]) was 1 (1=0-20%). For the same compound, the “percentage damage caused to the plant, AMAPA” value [10] was 5 (5=81-100%), the “percentage damage caused to the plant, AMARE” value [11] was 5 (5=81-100%) and the “percentage damage caused to the plant, ECHCG” value [12] was 0.

With `C=CCOC(=O)c1cc(-c2c(C)n(CC)c(-c3ccc(Cl)c(Cl)c3)c(C(=O)O)c2=O)c(F)cc1Cl` [Compound 3, 5-(5-allyloxycarbonyl-4-chloro-2-fluoro-phenyl)-2-(3,4-dichlorophenyl)-1-ethyl-6-methyl-4-oxo-pyridine-3-carboxylic acid] the “percentage damage caused to the plant, IPOHE” value [1] was 2 (2=21-40%), the “percentage damage caused to the plant, ECHCG” value ([2]; 1000 g/ha) was 5 (5=81-100%) and the “percentage damage caused to the plant, IPOHE” value ([3]; 1000 g/ha) was 4 (4=61-80%). For the same compound, the “percentage damage caused to the plant, ZEAMX” value (Zea mays (ZEAMX) [4]; 1000 g/ha) was 4 (4=61-80%), the “percentage damage caused to the plant, ZEAMX” value (Zea mays (ZEAMX) [5]) was 0 and the “percentage damage caused to the plant, AMARE” value ([6]; 1000 g/ha) was 5 (5=81-100%). For the same compound, the “percentage damage caused to the plant, AMAPA” value ([7]; 1000 g/ha) was 5 (5=81-100%), the “percentage damage caused to the plant, SETFA” value (Setaria faberi (SETFA) [8]; 1000 g/ha) was 5 (5=81-100%) and the “percentage damage caused to the plant, SETFA” value (Setaria faberi (SETFA) [9]) was 1 (1=0-20%). The “percentage damage caused to the plant, AMAPA” value [10] was 5 (5=81-100%), the “percentage damage caused to the plant, AMARE” value [11] was 5 (5=81-100%) and the “percentage damage caused to the plant, ECHCG” value [12] was 0.

`C=CC(C)OC(=O)c1ccc(F)c(-c2c(C)n(CC)c(-c3ccc(Cl)c(Cl)c3)c(C(=O)O)c2=O)c1` (stereo not drawn) [Compound 5, 2-(3,4-dichlorophenyl)-1-ethyl-5-[2-fluoro-5-(1-methylallyloxycarbonyl)phenyl]-6-methyl-4-oxo-pyridine-3-carboxylic acid] was tested, and the “percentage damage caused to the plant, ECHCG” value [2, 13] was 0, the “percentage damage caused to the plant, IPOHE” value [3, 13] was 1 (1=0-20%) and the “percentage damage caused to the plant, ZEAMX” value (Zea mays (ZEAMX) [4]; [13]) was 2 (2=21-40%). The “percentage damage caused to the plant, AMARE” value [6, 13] was 2 (2=21-40%), the “percentage damage caused to the plant, AMAPA” value [7, 13] was 3 (3=41-60%) and the “percentage damage caused to the plant, SETFA” value (Setaria faberi (SETFA) [8]; [13]) was 1 (1=0-20%).

For `CCn1c(C)c(-c2cc(C(=O)OC(C)CN(C)C)ccc2F)c(=O)c(C(=O)O)c1-c1ccc(Cl)c(Cl)c1` (stereo not drawn) [Compound 6, 2-(3,4-dichlorophenyl)-5-[5-[2-(dimethylamino)-1-methyl-ethoxy]carbonyl-2-fluoro-phenyl]-1-ethyl-6-methyl-4-oxo-pyridine-3-carboxylic acid], the “percentage damage caused to the plant, ECHCG” value ([2]; 1000 g/ha) was 1 (1=0-20%), the “percentage damage caused to the plant, IPOHE” value ([3]; 1000 g/ha) was 0 and the “percentage damage caused to the plant, ZEAMX” value (Zea mays (ZEAMX) [4]; 1000 g/ha) was 1 (1=0-20%). For the same compound, the “percentage damage caused to the plant, AMARE” value ([6]; 1000 g/ha) was 3 (3=41-60%), the “percentage damage caused to the plant, AMAPA” value ([7]; 1000 g/ha) was 4 (4=61-80%) and the “percentage damage caused to the plant, SETFA” value (Setaria faberi (SETFA) [8]; 1000 g/ha) was 1 (1=0-20%).
